In patent publication US20240215577A1, “FUNGICIDAL PYRIDONES” (FMC Corporation, priority 2021, published 2024) one finds melting point and pest or weed control data, which are given here for three compounds.

One data set relates to Alternaria solani. Description: Test F: tomato early blight, preventive spray on tomato seedlings. The format is in vivo. The settings on record: Alternaria solani, 50 ppm, 100 = 100% disease control, 0 = no control, read-out: Test F disease control rating. A digest of the protocol: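 Compounds in acetone/water (50/50) with 250 ppm PEG400 were sprayed to run-off on tomato seedlings and inoculated with Alternaria solani spores the next day. Plants were held in saturated humidity at 27° C for 48 h, then at 20° C for 3 days. Disease control was rated visually, 0–100, against controls.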

The next data set has as its system Zymoseptoria tritici. Description: Test A: wheat leaf blotch, preventive spray on wheat seedlings. The note with it: Zymoseptoria tritici, 50 ppm, 100 = 100% disease control, 0 = no control, read-out: Test A disease control rating. The format is in vivo. In short, it runs like this: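 Wheat seedlings were sprayed to run-off with compound in acetone/water 50/50 containing 250 ppm PEG400 and inoculated with Z. tritici spores the next day. Plants were held 48 h saturated at 24 °C, then 17 days at 20 °C. Disease was rated 0–100% control relative to controls.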

In the next data set the test system is Botrytis cinerea. Put plainly: Test E: tomato Botrytis, preventive spray on tomato seedlings. The format is in vivo. The note with it: Botrytis cinerea, 50 ppm, 100 = 100% disease control, 0 = no control, read-out: Test E disease control rating. In short, it runs like this: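 Compounds dissolved in acetone (3% of final volume), suspended in 50/50 acetone/water with 250 ppm PEG400, sprayed to run-off on seedlings. Spore inoculation next day; 48 h saturated atmosphere at 20° C, then 3 days at 24° C. Visual disease rating 0–100% control relative to controls.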

Data set [1] has as its system Puccinia recondita f. sp. tritici. Put plainly: Test B: wheat leaf rust, preventive spray on wheat seedlings. The format is in vivo. The note with it: Puccinia recondita, 50 ppm, 100 = 100% disease control, 0 = no control, read-out: Test B disease control rating. A digest of the protocol: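 Wheat seedlings sprayed to run-off with compound suspended at set ppm in 50/50 acetone/water (3% acetone pre-dissolution, 250 ppm PEG400); inoculated with rust spores next day. Held 24 h saturated at 20° C., then 7 days in growth chamber at 20° C.; visual rating, 0–100% disease control versus controls.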

Data set [2] deals with Blumeria graminis f. sp. tritici. Put plainly: Test C: wheat powdery mildew, preventive spray on wheat seedlings. The format is in vivo. The settings on record: Blumeria graminis, 50 ppm, 100 = 100% disease control, 0 = no control, read-out: Test C disease control rating. In short, it runs like this:
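Preventive assay: wheat seedlings sprayed to run-off with compound at the stated ppm (acetone/water 50/50, 250 ppm PEG400), dusted with B. graminis f. sp. tritici spores the following day, then kept 8 days at 20°C. Disease control visually scored 0-100 versus controls.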

The next data set has as its system Phakopsora pachyrhizi. Description: Test D: Asian soybean rust, preventive spray on soybean seedlings. The format is in vivo. The note with it: Phakopsora pachyrhizi, 216 h, 50 ppm, 100 = 100% disease control, 0 = no control, read-out: Test D disease control rating. A digest of the protocol: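 Soybean seedlings sprayed to run-off with compound suspension (ppm, in 50/50 acetone/water with 250 ppm PEG400), inoculated next day with P. pachyrhizi spores, held 24 h saturated at 22°C then 8 days at 22°C. Visual rating 0-100% disease control relative to controls.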

As a reminder, the melting point is the temperature, or range, at which the solid turns liquid. The compound `COc1cc(OC)c(Cl)c(-c2cn(C)c(=O)c(Cl)c2-c2ccc(F)cc2F)c1` [Compound 29, 3-chloro-5-(2-chloro-3,5-dimethoxyphenyl)-4-(2,4-difluorophenyl)-1-methyl-2(1H)-pyridinone] gave a melting point of 189 to 192 °C. Further, the pest or weed control at 50 ppm in the data set on Alternaria solani was determined as 99%. Besides, the pest or weed control at 50 ppm in the data set on Zymoseptoria tritici was 100%. Moreover, the pest or weed control at 50 ppm with Botrytis cinerea worked out at 94%. In data set [1], the pest or weed control at 50 ppm was determined as 100%. Also, the pest or weed control at 50 ppm in data set [2] stood at 99%. Also, in the data set on Phakopsora pachyrhizi, the pest or weed control at 50 ppm came to 100%.
`COc1ccc(Cl)c(-c2cn(C)c(=O)c(Cl)c2-c2ccc(F)cc2F)c1` [Compound 30, 3-chloro-5-(2-chloro-5-methoxyphenyl)-4-(2,4-difluorophenyl)-1-methyl-2(1H)-pyridinone] came in with a melting point of 192 to 195 °C. Moreover, the pest or weed control at 50 ppm in the data set with Alternaria solani is 99%. Further, in the data set on Zymoseptoria tritici, the pest or weed control at 50 ppm is 100%. Also, the pest or weed control at 50 ppm with Botrytis cinerea came to 94%. Also, the pest or weed control at 50 ppm in data set [1] amounted to 100%. Besides, the pest or weed control at 50 ppm in data set [2] was 100%. Also, the pest or weed control at 50 ppm in the data set on Phakopsora pachyrhizi turned out to be 100%.
On to `COc1cc(OC)c(F)c(-c2cn(C)c(=O)c(Cl)c2-c2ccc(F)cc2F)c1` [Compound 51, 3-chloro-4-(2,4-difluorophenyl)-5-(2-fluoro-3,5-dimethoxyphenyl)-1-methyl-2(1H)-pyridinone], for which the melting point was 155 to 158 °C. The pest or weed control at 50 ppm with Alternaria solani turned out to be 100%. In the data set on Zymoseptoria tritici, the pest or weed control at 50 ppm stood at 100%. The pest or weed control at 50 ppm in the data set with Botrytis cinerea worked out at 98%. Moreover, the pest or weed control at 50 ppm in data set [1] worked out at 100%. In data set [2], the pest or weed control at 50 ppm was determined as 98%. For the same compound, the pest or weed control at 50 ppm in the data set with Phakopsora pachyrhizi worked out at 99%.
